Tests used:
[1] = target: T1, Rat androgen receptors (rat AR) (Rattus norvegicus, UniProt P15207); assay: Test for competitive binding to rat androgen receptors; conditions: 3H-testosterone, rat prostate AR fraction; hydroxyflutamide taken as 100
T1 construct: from tissue; host or cells: prostate of orchiectomized male SD rats (100,000 x g supernatant)
T1 sequence (P15207 1-902): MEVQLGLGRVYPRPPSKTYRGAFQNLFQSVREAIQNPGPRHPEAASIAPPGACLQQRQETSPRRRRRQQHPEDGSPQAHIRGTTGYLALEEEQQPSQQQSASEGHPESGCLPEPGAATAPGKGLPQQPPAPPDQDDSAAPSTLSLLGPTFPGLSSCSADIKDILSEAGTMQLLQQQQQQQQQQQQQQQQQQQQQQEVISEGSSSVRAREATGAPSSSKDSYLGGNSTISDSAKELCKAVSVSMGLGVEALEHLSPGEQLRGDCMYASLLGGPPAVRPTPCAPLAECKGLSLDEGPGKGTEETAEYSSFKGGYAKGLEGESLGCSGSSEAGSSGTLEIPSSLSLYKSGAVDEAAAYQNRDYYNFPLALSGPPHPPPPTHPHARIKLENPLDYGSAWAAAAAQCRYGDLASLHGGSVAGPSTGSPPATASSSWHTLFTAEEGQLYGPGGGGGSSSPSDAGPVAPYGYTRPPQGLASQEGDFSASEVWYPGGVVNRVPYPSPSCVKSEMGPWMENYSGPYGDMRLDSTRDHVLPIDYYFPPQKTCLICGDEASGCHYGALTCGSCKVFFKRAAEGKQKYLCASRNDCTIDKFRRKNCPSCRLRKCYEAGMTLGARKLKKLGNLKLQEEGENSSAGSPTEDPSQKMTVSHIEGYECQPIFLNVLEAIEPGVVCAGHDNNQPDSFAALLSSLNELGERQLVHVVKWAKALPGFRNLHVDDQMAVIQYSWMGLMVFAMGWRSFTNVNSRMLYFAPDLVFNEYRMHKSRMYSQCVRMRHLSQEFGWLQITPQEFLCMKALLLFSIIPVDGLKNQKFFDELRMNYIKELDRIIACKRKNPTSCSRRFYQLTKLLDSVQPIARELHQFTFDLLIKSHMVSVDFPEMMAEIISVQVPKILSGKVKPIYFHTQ
Method: Test for Competitive Binding to Rat Androgen Receptors (Rat AR)
Preparation of rat AR fraction: Prostates were harvested into ice-cooled ET buffer (10 mM Tris, 1 mM EDTA, 5 mM DTT, 10 mM sodium molybdate, pH 7.4) 3 days after orchiectomy in 11-week-old male SD rats. The prostate was finely cut, and ET buffer was added, whereafter the mixture was homogenized using a homogenizer. The homogenate was ultracentrifuged (100,000×g, 60 min, 4° C.), and the supernatant was used as a rat AR fraction (hereinafter referred to as ARF).
Binding test: ^3H-testosterone (hereinafter referred to as ^3H-T) was diluted with ET buffer. Dihydrotestosterone (DHT) was prepared so as to have a concentration (final concentration 1 μM) 400 times the maximum concentration of ^3H-T (2.5 nM). The ^3H-T solution was added to a 1.5 ml tube containing DHT, no DHT, or the test compound with a varying concentration. Further, 200 μg ARF was added to adjust the final volume to 100 μl. The mixture was incubated for 2 hours at 4° C., and then 300 μl of a 0.05% dextran T70-1.0% activated carbon solution was added. The mixture was further incubated for 15 minutes in ice to remove the free ^3H-T. After centrifugation (4° C., 2,500 rpm, 5 min), 275 μl of the supernatant was harvested into a liquid scintillation vial, and 2 ml of clear-sol was added. The mixture was stirred, allowed to stand, and measured for ^3H radioactivity with a liquid scintillation counter.
Calculation of the relative binding inhibition rate: The binding inhibition rate (%) of the compound according to the present invention was calculated from the following equation, and the 50% inhibition concentration (IC50) was calculated by the probit analysis of the concentration-binding inhibition curve.
The relative binding inhibition rate (RBA: Relative Binding Affinity) was obtained from the following equation (Endocrinology 138, 863-870, 1997): RBA=100×(IC50 of hydroxyflutamide)/(IC50 of the compound of the present invention) • RBA's of the compounds of the present invention, calculated as above, are shown in Table 10.

AR = assay: Assignment of compounds as having AR agonistic or AR antagonistic action (description, no method given); conditions: compounds named as usable for category A diseases
orchiectomized rats = assay: Action of increasing prostate weight in orchiectomized rats (Test Example 2, printed 21); type: in vivo, rat; conditions: for Weight of prostate: orchiectomized SD rats, Mean ± SD
Method: Action of Increasing Prostate Weight in Orchiectomized Rats
Testes were removed from 8- to 12-week-old male SD rats. From 5 days postoperation, the compound of the present invention (3, 30 mg/kg), suspended in a 0.5% methyl cellulose solution, was subcutaneously injected once daily for a consecutive week, and 6 days weekly for 8 consecutive weeks. On the next day after final administration, the wet weight of the ventral prostate was measured to evaluate the in vivo AR agonistic effect of the compound of the present invention.

[2] = system: orchiectomized (ORX) rats; assay: Action of increasing prostate weight and bone mineral density in orchiectomized (ORX) rats (Test Example 4); type: in vivo, rat; conditions: 10 mg/kg s.c. once daily, 5 days weekly, 4 weeks, ORX SD rats, Mean ± SD
Method: Action of Increasing Prostate Weight and Bone Mineral Density in Orchiectomized (ORX) Rats
Orchiectomy was performed in 12-week-old male SD rats. From the next day postoperation, the positive control compound dihydrotestosterone (DHT, 10 mg/kg) and the compound of the present invention (Example 60, 60 mg/kg), each dissolved in a 5% dimethyl sulfoxide-containing olive oil solution, were subcutaneously injected once daily, 5 days weekly, for 4 weeks. On the next day after final administration, the wet weight of the ventral prostate was measured to evaluate the AR agonistic effect of the compound of the present invention. On the next day following final administration, moreover, the right femur was removed, and fixed overnight in a 10% neutrally buffered formalin solution. Then, the bone mineral density at the site ranging from the diaphysis to the proximal end was measured by the method of double energy X-ray absorption using a bone mineral content-measuring machine (Aloka, DCS-600) to evaluate increasing action of bone mineral density of the compound of the present invention.

[3] = system: orchiectomized (ORX) rats; assay: Action of increasing prostate weight in orchiectomized (ORX) rats (Test Example 3); type: in vivo, rat; conditions: 30 mg/kg s.c. once daily for 8 days, ORX SD rats, Mean ± SD
Method: Action of Increasing Prostate Weight in Rats After Orchiectomized (ORX) Rats
Orchiectomy was performed in 8-week-old male SD rats. From 5 days postoperation, the compound of the present invention (Example 60, 30 mg/kg), dissolved in a 5% dimethyl sulfoxide-containing olive oil solution, was subcutaneously injected once daily for 8 days. On the next day after final administration, the wet weight of the ventral prostate was measured to evaluate the AR agonistic effect of the compound of the present invention.

Structure (SMILES) | RBA (Relative Binding Affinity = 100 x IC50 of hydroxyflutamide / IC50 of the compound) [1] | further results
CC(=O)OCC(C)(C)C1Nc2ccc(C#N)cc2C2C=CCC21 (stereo not drawn) [Example 40, acetic acid 2-(8-cyano-3a,4,5,9b-tetrahydro-3H-cyclopentatc[c]quinolin-4-yl)-2-methylpropyl ester] | 96 | –
CCNC(=S)NCC(C)(C)C1Nc2ccc([N+](=O)[O-])cc2C2C=CCC21 (stereo not drawn) [Example 68] | 491 | –
CC(C)(CCl)C1Nc2ccc([N+](=O)[O-])cc2C2C=CCC21 (stereo not drawn) [Example 29] | 75 | –
CC(C)(CO)C1Nc2ccc([N+](=O)[O-])cc2C2C=CCC21 (stereo not drawn) [Example 1, 2-methyl-2-(8-nitro-3a,4,5,9b-tetrahydro-3H-cyclopenta[c]quinolin-4-yl)-propan-1-ol] | 4751 | AR agonistic action (AR): AR agonistic action; Weight of prostate (orchiectomized rats; 1-week treatment, 3 mg/kg s.c. once daily): 18 ± 4 mg/body weight (100 g); Weight of prostate (orchiectomized rats; 1-week treatment, 30 mg/kg s.c. once daily): 26 ± 3 mg/body weight (100 g); Weight of prostate (orchiectomized rats; 8-week treatment, 3 mg/kg s.c. 6 days weekly): 52 ± 8 mg/body weight (100 g); Weight of prostate (orchiectomized rats; 8-week treatment, 30 mg/kg s.c. 6 days weekly): 97 ± 14 mg/body weight (100 g); Prostate weights in comparison with the comparative example (orchiectomized rats; consecutively administered for 1 week (3, 30 mg/kg s.c.)): significantly increased prostate weights; Prostate weight relative to normal control (orchiectomized rats; duration of treatment extended to 8 weeks (3, 30 mg/kg s.c.)): restored the atrophied prostate up to the level of the normal control
C[C@]12CCC(=O)C[C@@H]1CC[C@@H]1[C@@H]2CC[C@]2(C)[C@@H](O)CC[C@@H]12 [DHT, dihydrotestosterone, reference compound] | – | Prostate weight [2]: 150 ± 14 mg/body weight 100 g; Bone mineral density ([2]; right femur): 131 ± 7 mg/cm^2
CC(C)(CNS(C)(=O)=O)C1Nc2ccc([N+](=O)[O-])cc2C2C=CCC21 (stereo not drawn) [Example 59] | 2288 | –
Cc1cccc(NC(=O)NCC(C)(C)C2Nc3ccc([N+](=O)[O-])cc3C3C=CCC32)c1 (stereo not drawn) [Example 65] | – | AR agonistic action (AR): AR agonistic action
CC(C)(CNC(=O)Nc1ccc([N+](=O)[O-])cc1)C1Nc2ccc([N+](=O)[O-])cc2C2C=CCC21 (stereo not drawn) [Example 66] | – | AR agonistic action (AR): AR agonistic action
CC(C)(CNS(=O)(=O)c1ccc(F)cc1)C1Nc2ccc([N+](=O)[O-])cc2C2C=CCC21 (stereo not drawn) [Example 61] | 169 | –
CC(=O)Nc1ccc(S(=O)(=O)NCC(C)(C)C2Nc3ccc([N+](=O)[O-])cc3C3C=CCC32)cc1 (stereo not drawn) [Example 63] | 580 | –
CC(C)(CNC(=O)c1ccccc1)C1Nc2ccc([N+](=O)[O-])cc2C2C=CCC21 (stereo not drawn) [Example 56] | – | AR agonistic action (AR): AR agonistic action
CC(C)(O)C(=O)Nc1ccc([N+](=O)[O-])c(C(F)(F)F)c1 [Hydroxyflutamide, hydroxyflutamide, reference compound] | 100 | –
CC(C)(OCc1ccccc1)C1Nc2ccc([N+](=O)[O-])cc2C2C=CCC21 (stereo not drawn) [Example 21] | 74 | –
CC(C)NC(=O)NCC(C)(C)C1Nc2ccc([N+](=O)[O-])cc2C2C=CCC21 (stereo not drawn) [Example 64, 1-isopropyl-3-[2-methyl-2-(8-nitro-3a,4,5,9b-tetrahydro-3H-cyclopenta[c]quinolin-4-yl)-propyl]urea] | 298 | –
CC(=O)SCC(C)(C)C1Nc2ccc([N+](=O)[O-])cc2C2C=CCC21 (stereo not drawn) [Example 76, thioacetic acid S-[2-methyl-2-(8-nitro-3a,4,5,9b-tetrahydro-3H-cyclopenta[c]quinolin-4-yl)propyl]ester] | 131 | –
CNC(=S)NCC(C)(C)C1Nc2ccc([N+](=O)[O-])cc2C2C=CCC21 (stereo not drawn) [Example 67] | – | AR agonistic action (AR): AR agonistic action
CC(=O)NCC(C)(C)C1Nc2ccc([N+](=O)[O-])cc2C2C=CCC21 (stereo not drawn) [Example 52] | 478 | –
CC(C)(CO)C1Nc2ccc(C#N)cc2C2C=CCC21 (stereo not drawn) [Example 35, 4-(2-Hydroxy-1,1′-dimethyl-ethyl)-3a,4,5,9b-tetrahydro-3H-cyclopenta[c]quinoline-8-carbonitrile] | 236 | –
CC(C)(CO)C1Nc2cccc([N+](=O)[O-])c2C2C=CCC21 (stereo not drawn) [Example 7] | 65 | –
COC(C)(C)C1Nc2ccc([N+](=O)[O-])cc2C2C=CCC21 (stereo not drawn) [Example 19] | 57 | –
CC(C)NC(=S)NCC(C)(C)C1Nc2ccc([N+](=O)[O-])cc2C2C=CCC21 (stereo not drawn) [Example 69] | 244 | Weight of prostate [3]: 21 ± 2 mg/body weight 100 g
CC(=O)OCC(C)(C)C1Nc2ccc([N+](=O)[O-])cc2C2C=CCC21 (stereo not drawn) [Example 23] | – | AR agonistic action (AR): AR agonistic action
CC(C)(C)OC(=O)NCC(C)(C)C1Nc2ccc([N+](=O)[O-])cc2C2C=CCC21 (stereo not drawn) [Example 25] | – | AR agonistic action (AR): AR agonistic action
CC(C)C(=O)NCC(C)(C)C1Nc2ccc([N+](=O)[O-])cc2C2C=CCC21 (stereo not drawn) [Example 53] | 55 | –

— patent publication US7037919B1, “Tetrahydroquinoline derivatives” (Kaken Pharmaceutical Co. Ltd., priority 1999, dated 2006)
